What was measured:
Assay in all cases: Bliss excess, mean over the matrix (fraction); higher = more synergy
KS-1 (Glioblastoma) = system: KS-1 (Glioblastoma)
In short: (§1)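 After 24 hours at 37°C and 5% CO2 in 1536-well plates, cells in DMEM/F12 or RPMI plus 10% FBS received two-drug dose matrices for 72 hours. Viability came from CellTiter-Glo 2.0 luminescence and was scaled as inhibition, anchored at 0 by vehicle wells and at 1 by blank wells. Combination Emax is taken as the second-highest inhibition in the matrix, and Bliss excess as the observed combination effect less EA + EB − EA·EB, with EA and EB the single-agent effects.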

[1] = system: BE-13 (T-Lymphoblastic Leukemia)
In short: as §1

[2] = system: NCI-H524 (Small Cell Lung Carcinoma)
In short: as §1

A673 (Ewing's Sarcoma) = system: A673 (Ewing's Sarcoma)
In short: as §1

[3] = system: ESS-1 (Other Solid Carcinomas)
In short: as §1

GAMG (Glioblastoma) = system: GAMG (Glioblastoma)
In short: as §1

EW-11 (Ewing's Sarcoma) = system: EW-11 (Ewing's Sarcoma)
In short: as §1

[4] = system: OVCAR-5 (Ovarian Carcinoma)
In short: as §1

[5] = system: SAS (Oral Cavity Carcinoma)
In short: as §1

MPP-89 (Mesothelioma) = system: MPP-89 (Mesothelioma)
In short: as §1

[6] = system: CAL-33 (Oral Cavity Carcinoma)
In short: as §1

[7] = system: Detroit562 (Head and Neck Carcinoma)
In short: as §1

[8] = system: NCI-H1568 (Lung Adenocarcinoma)
In short: as §1

[9] = system: LCLC-97TM1 (Non-Small Cell Lung Carcinoma)
In short: as §1

[10] = system: HeLa (Cervical Carcinoma)
In short: as §1

[11] = system: ALL-PO (B-Lymphoblastic Leukemia)
In short: as §1

[12] = system: L-428 (Hodgkin's Lymphoma)
In short: as §1

[13] = system: NUGC-4 (Gastric Carcinoma)
In short: as §1

BE2-M17 (Neuroblastoma) = system: BE2-M17 (Neuroblastoma)
In short: as §1

[14] = system: Hs-746T (Gastric Carcinoma)
In short: as §1

| Structure (SMILES) | Bliss excess (KS-1 (Glioblastoma)) | Bliss excess [1] | Bliss excess [2] | Bliss excess (A673 (Ewing's Sarcoma)) | Bliss excess [3] | Bliss excess (GAMG (Glioblastoma)) | Bliss excess (EW-11 (Ewing's Sarcoma)) | Bliss excess [4] | Bliss excess [5] | Bliss excess (MPP-89 (Mesothelioma)) | Bliss excess [6] | Bliss excess [7] | Bliss excess [8] | Bliss excess [9] | Bliss excess [10] | Bliss excess [11] | Bliss excess [12] | Bliss excess [13] | Bliss excess (BE2-M17 (Neuroblastoma)) | Bliss excess [14] |
| --- | --- | --- | --- | --- | --- | --- | --- | --- | --- | --- | --- | --- | --- | --- | --- | --- | --- | --- | --- | --- |
| N#Cc1cnc(Nc2cc(NC[C@H]3CNCCO3)c(C(F)(F)F)cn2)cn1 [SRA737] + Nc1ccn([C@@H]2O[C@H](CO)[C@@H](O)C2(F)F)c(=O)n1 [Gemcitabine] (first compound max 10 µM, 7x7, partner max 0.3 µM) | 0.0304 | 0.0965 | 0.0346 | 0.0343 | 0.0477 | 0.182 | -0.0557 | 0.0627 | 0.105 | 0.0014 |  |  |  |  |  |  |  |  |  |  |
| COc1cc2ncnc(Nc3ccc(F)c(Cl)c3)c2cc1OCCCN1CCOCC1 [Gefitinib] + CC(C)n1c(=O)n(C)c2cnc3cc(F)c(-c4ccc(OCCCN5CCCCC5)nc4)cc3c21 [AZD1390] (first compound max 10 µM, 7x7, partner max 0.3 µM) | -0.0599 | -0.0956 | -0.0431 | -0.047 | -0.0518 | -0.0443 | -0.0563 | -0.0846 | -0.0454 | -0.05 | -0.0366 | -0.0476 | -0.0412 | -0.0389 | -0.0578 | -0.0558 | -0.0645 | -0.0491 | -0.049 | -0.0759 |
| COc1nnc2ccc(N3CCC(c4ccc(OCCN5CCN(C)C(=O)[C@H]5C)cc4)CC3)nn12 [AZD5153] + CN(CC[C@H](CSC1=CC=CC=C1)NC2=C(C=C(C=C2)S(=O)(=O)NC(=O)C3=CC=C(C=C3)N4CCC(CC4)[C@H](C5=CC=CC=C5C6=CC=C(C=C6)Cl)O)S(=O)(=O)C(F)(F)F)CCO [AZD4320] (first compound max 1 µM, 7x7, partner max 1 µM) |  |  |  |  |  |  |  |  |  |  | -0.0117 | 0.0847 | -0.044 | -0.0034 | -0.033 | 0.0079 | -0.0432 | 0.0299 | 0.0682 | 0.0125 |
| Cc1nc(Nc2ncc(C(=O)Nc3c(C)cccc3Cl)s2)cc(N2CCN(CCO)CC2)n1 [Dasatinib] + CC(=O)Nc1cccc(-n2c(=O)n(C3CC3)c(=O)c3c(Nc4ccc(I)cc4F)n(C)c(=O)c(C)c32)c1 [Trametinib] (first compound max 2 µM, 7x7, partner max 1 µM) | -0.0429 | 0.123 | -0.0362 | -0.075 | -0.0417 | -0.018 | -0.0404 | 0.0217 | 0.0083 | -0.0661 | -0.0189 | -0.0007 | 0.118 | 0.0455 | -0.0672 | 0.0238 | -0.0494 | 0.007 | -0.0087 | -0.0943 |
| COc1cc2c(cc1OCCCCCOc1cc3c(cc1OC)C(=O)N1C=C(C)C[C@H]1C=N3)N=C[C@@H]1CC(C)=CN1C2=O [SG3199] + O=C(c1cc(Cc2n[nH]c(=O)c3ccccc23)ccc1F)N1CCN(C(=O)C2CC2)CC1 [Olaparib] (first compound max 0.001 µM, 7x7, partner max 10 µM) | -0.0482 | -0.0469 | -0.0181 | -0.0556 | -0.0118 | -0.0494 | -0.051 | -0.0314 | -0.03 | -0.0391 | -0.0198 | -0.0252 | -0.077 | -0.0079 | -0.0301 | -0.0276 | -0.0207 | -0.0134 | 0.0474 | -0.0292 |
| Cc1cc2ncnn2cc1Nc1ncc2c(n1)n(C1CCOCC1)c(=O)n2C [AZD7648] + C[C@@H]1COCCN1C2=NC(=NC(=C2)C3(CC3)[S@](=N)(=O)C)C4=C5C=CNC5=NC=C4 [AZD6738] (first compound max 10 µM, 7x7, partner max 10 µM) | -0.0011 | -0.0121 | 0.035 | -0.0295 | -0.0161 | 0.0064 | 0.0104 | 0.0263 | 0.0211 | -0.0034 | 0.0013 | 0.0217 | 0.0383 | 0.0376 | 0.0258 | 0.0381 | -0.0223 | -0.0673 | -0.0073 | -0.0119 |
| CN(CCO)CC[C@H](CSc1ccccc1)Nc1ccc(S(=O)(=O)NC(=O)c2ccc(N3CCC([C@@H](O)c4ccccc4-c4ccc(Cl)cc4)CC3)cc2)cc1S(=O)(=O)C(F)(F)F [AZD4320] + Cc1cc2ncnn2cc1Nc1ncc2c(n1)n(C1CCOCC1)c(=O)n2C [AZD7648] (first compound max 1 µM, 7x7, partner max 10 µM) | 0.0033 | 0.0028 | -0.044 | 0.0069 | -0.0373 | -0.0633 | -0.0468 | -0.0452 | -0.0533 | -0.0105 | -0.009 | -0.0281 | -0.0325 | -0.0214 | -0.0345 | 0.0085 | -0.0021 | -0.0725 | -0.0059 | -0.0371 |

— the supplement of paper PMC11061612
